Reference: US8951747B2, “Method for modulating activity of T lymphocytes” (Ludwig Institute for Cancer Research, priority 2007, dated 2015)

What was measured:
Format in all cases: cell-based, human
[1] = system: kidney infiltrating T cells isolated from the kidney allograft; assay: IFN-γ production by functional kidney infiltrating T cells; conditions: LacNAc treatment; stimulation with allogeneic EBV-B cells or anti-CD3/CD28 beads
Description: A standard depletion strategy was used to isolate CD8^+ T cells from a breast carcinoma metastasis, ovarian carcinoma ascites, blood, and a kidney allograft that had been resected during a chronic rejection process.
As was noted supra, there was clear TCR CD8 FRET on kidney infiltrating T cells isolated from the kidney allograft. These T cells released IFN-γ upon stimulation with allogeneic EBV-B cells, or beads coated with anti-CD3/CD28 antibodies.
Different treatments were not, however, unspecific.

[2] = system: TILs from ovarian cancer ascites; assay: IFN-γ response of anergic TILs to stimulation; conditions: overnight incubation with 1 mM LacNAc
Experimental: It was confirmed by the fact that, notwithstanding overnight stimulation with a mixed population of tumor cells, B cells, and macrophages collected from the same ascites, or with allogenic EBV-β cells. IFNγ was not produced.
When these anergic TILs were incubated overnight with 1 mM LacNAc, their IFN-γ response increased more than 10 fold.

CD8TL clone A10 [3] = assay: HLA-peptide tetramer staining of tetramer^low CD8TLs; conditions: for tetramer staining (ability to bind tetramers): tetramer^low cells, day 4 after stimulation, incubated 2 hours, o-phenantholin 30 μM, lactose 100 mM, LacNAc 1 mM, sucrose 100 nM, vs untreated cells
Experimental: Fourteen days after the stimulation, the CD8TLs were then stained with complexes of HLA-A0101 folded with SEQ ID NO: 1, prepared as described by Coulie, et al., Proc. Natl. Acad. Sci. USA, 98:10290-10295 (2001), incorporated by reference. The complexes were biotinylated and then labeled with phycoerythrin (“PE”), using known methods. Staining was accomplished by incubating CD8TLs, for 10 minutes, at room temperature, with 5 nM of tetramer, and then washing.
(§1) To test this, cells of CD8TL clone A10 were collected, on days 0 and 4, after stimulation with HLA-A1^+, MAGE-3^+ tumor cells. Mean fluorescence indices were determined for both the high and low staining populations, on days 0 and 4. […] staining was carried out, as described supra, with cells that were either incubated with no test substance, or which had been incubated for 2 hours, on day 4, with one of o-phenantholin (30 μM), a known Zn chelator, lactose, (100 mM), LacNAc (1 mM), or sucrose (100 nM). The rationale behind the incubation with lactose, LacNAc, and sucrose is explained in Example 11. A final sample was incubated with swainsonin (0.5 μM) on day 0, before the cells were stimulated.
(§2) The cells were then washed, and analyzed for all of tetramer staining, proximity of the molecules via FRET, and IFN-γ production following antigenic stimulation.

tetramer^low CD8TLs = assay: IFN-γ release by tetramer^low CD8TLs treated with galectin-3 binders or neuraminidase; conditions: CD8TLs collected 3-4 days after stimulation
Experimental: To test this, tetramer^low CD8TLs, collected 3-4 days after stimulation, as described supra, were treated with LacNAc, a known competitive binder of galectin-3. Release of IFN-γ was restored.
These experiments were repeated testing two other galectin-3 binders, “tri-LacNAc,” and an antibody against the N-terminus of galectin-3.
The experiments described herein, using neuraminidase, were carried out on human CD8TLs, and the results parallel those observed by Kao, et al., Immunol., 17:1607-1617 (2005), on murine cells. It is hypothesized that a sialic acid residue may be present, near the LacNAc motif of galectin-binding proteins, and act to increase galectin-3 affinity.

[4] = system: CD8+ TILs from gastric carcinoma ascites; assay: TCR CD8 FRET on CD8+ TILs; conditions: 1 mM LacNAc, 37° C., 5 hours of treatment; compared with tetramer^high CD8TL A10
Experimental: (§3) To elaborate, samples of 2×10^5 cells were washed in Hank's medium that had been supplemented with 1% human serum, and were then resuspended, in 50 μl of medium, which contained either an anti-TCRβ-PE antibody (the “donor” antibody), or an anti-CD8α-Alexa647 antibody (the “acceptor” antibody), or both. The former was diluted at 1/20 and the latter, at 1/300.
(§4) Samples were incubated for 30 minutes at 4° C., washed, and fixed with paraformaldehyde (2% w/v in PBS). Analysis was carried out on a FACS system, and transfer of fluorescence was calculated as FRET units, in accordance with Doucey, et al., J. Biol. Chem., 278:3257-3264 (2003), incorporated by reference. A FRET unit is defined as: [E3both−E3none]−[(E3A647−E3none)×(E2both/E2A647)]−[(E3PE−3none)×(E1both/E1PE)]
These experiments tested the impact of N-acetyllactosamine (LacNAc) on colocalization. Gastric carcinoma ascites were screened for CD8^+ TILs, after they had been incubated for various time periods at 37° C., with 1 mM of LacNAc, and washed. As a control, the line CD8TL A10 was used, two weeks after its last antigenic stimulation.

CD8TL clone A10 [5] = assay: IFN-γ production following antigenic stimulation; conditions: for ability to release IFN-γ upon antigenic stimulation: tetramer^low cells, day 4 after stimulation, incubated 2 hours, o-phenantholin 30 μM, lactose 100 mM, LacNAc 1 mM, sucrose 100 nM, vs untreated cells
Experimental: In addition to the experiments set forth, supra the effector capability of the T lymphocytes was tested, at various points during the period in which they were stimulated. Stimulation conditions are set forth in Example 1, supra. The effector activity was determined by contacting samples of 5000 CD8TLs with 2×10^5 HLA-A1 EBV-B cells which had been incubated for one hour with 1 μM of the peptide of SEQ ID NO: 1 at 37° C., and co-culturing the mixed sample, overnight. The amounts of IFN-γ and IL-2 resulting from the activation of the T cells were measured in the supernatants of the co-cultured cells via ELISAs.
as §1, §2

CD8TL clone A10 [6] = assay: FRET analysis of TCR-CD8 proximity on tetramer^low CD8TLs; conditions: for FRET between TCR and CD8 (TCR-CD8 proximity): tetramer^low cells, day 4 after stimulation, incubated 2 hours, o-phenantholin 30 μM, lactose 100 mM, LacNAc 1 mM, sucrose 100 nM, vs untreated cells
Experimental: as §3, §4
E1 is the fluorescence detected at 580 nm, following excitation at 488 nm. E2 is fluorescence detected at 670 nm, following excitation at 630 nm, and E3 is fluorescence detected at 670 nm following excitation at 488 nm.
After the molecules are excited at the donor level, transfer of energy from donor to acceptor happens only if the distance between two molecules is less than 10 nm, with energy transfer being measured by emission at the acceptor wavelength.
as §1, §2

[7] = swainsonin 0.5 μM added on day 0 before restimulation, read at day 4

Compound | IFN-γ production of kidney infiltrating T cells [1] | increase of IFN-γ response to antigen stimulation [2] | tetramer staining (ability to bind tetramers) (CD8TL clone A10 [3]) | release of IFN-γ by tetramer^low CD8TLs (tetramer^low CD8TLs) | TCR CD8 FRET on TILs [4] | ability to release IFN-γ upon antigenic stimulation (CD8TL clone A10 [5]) | FRET between TCR and CD8 (TCR-CD8 proximity) (CD8TL clone A10 [6]) | tetramer staining (CD8TL clone A10 [3]; [7]) | ability to release IFN-γ when restimulated (CD8TL clone A10 [5]; swainsonin 0.5 μM added on day 0 before restimulation) | FRET efficiency (TCR-CD8) (CD8TL clone A10 [6]; [7])
CC(=O)N[C@H]1C(O)O[C@H](CO)[C@@H](O[C@@H]2O[C@H](CO)[C@H](O)[C@H](O)[C@H]2O)[C@@H]1O (stereo partly shown) [LacNAc, N-acetyl lactosamine] | did not result in increased IFN-γ production | more than 10 fold | higher degrees of tetramer staining | restored | recovered the same level of TCR CD8 FRET | higher ability to release IFN-γ | higher FRET efficiencies |  |  | 
OC[C@H]1O[C@@](CO)(O[C@H]2O[C@H](CO)[C@@H](O)[C@H](O)[C@H]2O)[C@@H](O)[C@@H]1O [Sucrose, sucrose] |  |  | no effect |  |  | no effect | no effect |  |  | 
O[C@H]1[C@H]2[C@H](O)CCCN2C[C@H]1O [Swainsonin, swainsonin] |  |  |  |  |  |  |  | higher tetramer staining | higher ability to release IFN-γ | higher FRET efficiency
OC[C@H]1O[C@@H](O[C@H]2[C@H](O)[C@@H](O)C(O)O[C@@H]2CO)[C@H](O)[C@@H](O)[C@H]1O (stereo partly shown) [lactose] |  |  | higher degrees of tetramer staining |  |  | higher ability to release IFN-γ | higher FRET efficiencies |  |  | 
c1cnc2c(c1)ccc1cccnc12 [o-phenantholin] |  |  | regained |  |  | regained | regained FRET exchanges between the 2 molecules |  |  | 
